Test results reported in patent US11434227B2, “Broad spectrum antibacterial activity of novel bisbenzimidazoles targeting topoisomerase IA and the synergistic composition of bisbenzimidazole with efflux pump inhibitors against pathogenic bacteria” (Jawaharlal Nehru University (JNU), priority 2016, dated 2022).
≈ marks a conversion by molar mass, not a printed value.

Experiments:
[1] = test system: E. coli K12 mutant ΔTopIB; test: Susceptibility of E. coli K12 and mutants (MIC90); conditions: Escherichia coli
Experimental: (§1) MICs were determined by the broth microdilution method according to CLSI methods (Clinical and Laboratory Standards Institute, 2005). Inoculants were incubated at 37° C. on cation adjusted Mueller Hinton (MH) Broth for 18 to 24 h. Compound were dissolved in media to 10 doubling dilutions from 128 to 0.125 μg/mL. All the bacterial strains were grown in 96 well plate with low evaporation lid (Falcon, Becton Dickinson) in presence of derivatives of benzimidazoles at 0.125, 0.25, 0.5, 1, 2, 4, 8, 16, 32, 64, 128, 256 μg/mL concentrations. […] Plates were read by Tecan Micro-plate Reader at 600 nm.

Enterococcus sp. (2105) = test: HN12b in combination with efflux pump inhibitors (CB method, FICI)
Experimental: (§2) 96-well microtiter plates containing MIC25 concentrations of the Efflux pump inhibitor (CCCP, PAβN) and HN12b antimicrobial drugs alone and in CB combination were used. The MICs of the individual drugs HN12b, PAβN and CCCP (0.25 to 128 μg/ml) and of the combinations were determined using the broth microdilution technique as recommended by the CLSI. Briefly, the broth microdilution plates were inoculated with each test organism to yield the appropriate density (10^5 CFU/ml) in 100 μl Mueller-Hinton broth (MHB) and incubated for 24 h at 37° C. in ambient air. One well with no antibiotic was used as a positive growth control on each plate. Plates were read for visual turbidity, and results were recorded after 24 h of incubation at 37° C. in ambient air by using a magnifying mirror reader, as turbidity in wells indicated growth of the microorganism. The MIC was determined as the well in the microtiter plate with the lowest drug concentration at which there was no visible growth. […] MICAB was defined as the MIC of drug A in the presence of drug B; MICBA was defined as the MIC of drug B in the presence of drug A.
(§3) The fractional inhibitory concentration index (FICI) was calculated for each antibiotic in each combination by using the following formula: FICA+FICB=FICI, where FICA equals the MIC of drug A in combination divided by the MIC of drug A alone and FICB equals the MIC of drug B in combination divided by the MIC of drug B alone. The FICIs were interpreted as follows: FICI of ≤0.5 will correspond to synergy; FICI of >0.5 to ≤1 will correspond to additivity; FICI of >1 to ≤4 will correspond to no interaction (indifference), and FICI of >4 will correspond antagonism.

E. coli 81^R = test: Susceptibility (MIC, PAE, MBC), broth microdilution; conditions: Escherichia coli
Experimental: as §1

[2] = test system: Providencia sp. (MTCC 2102); test: HN12b in combination with efflux pump inhibitors (CB method, FICI); conditions: for FICI: Providencia sp. (MTCC 2102)
Experimental: as §2, §3

E. coli 85^R = test: Susceptibility (MIC, PAE, MBC), broth microdilution; conditions: Escherichia coli
Experimental: as §1

[3] = test system: Acinetobacter baumannii (AB312); test: Susceptibility (MIC50/MIC90), broth microdilution
Experimental: as §1

A. baumannii (MTCC1920) = test: HN12b in combination with efflux pump inhibitors (CB method, FICI)
Experimental: as §2, §3

[4] = molecular target: E. coli Topoisomerase IA (EcTopoIA) (Escherichia coli, UniProt P06612); test: Topoisomerase IA relaxation inhibition assay; assay type: biochemical; conditions: compared to DMA
E. coli Topoisomerase IA (EcTopoIA), sequence (P06612 whole entry): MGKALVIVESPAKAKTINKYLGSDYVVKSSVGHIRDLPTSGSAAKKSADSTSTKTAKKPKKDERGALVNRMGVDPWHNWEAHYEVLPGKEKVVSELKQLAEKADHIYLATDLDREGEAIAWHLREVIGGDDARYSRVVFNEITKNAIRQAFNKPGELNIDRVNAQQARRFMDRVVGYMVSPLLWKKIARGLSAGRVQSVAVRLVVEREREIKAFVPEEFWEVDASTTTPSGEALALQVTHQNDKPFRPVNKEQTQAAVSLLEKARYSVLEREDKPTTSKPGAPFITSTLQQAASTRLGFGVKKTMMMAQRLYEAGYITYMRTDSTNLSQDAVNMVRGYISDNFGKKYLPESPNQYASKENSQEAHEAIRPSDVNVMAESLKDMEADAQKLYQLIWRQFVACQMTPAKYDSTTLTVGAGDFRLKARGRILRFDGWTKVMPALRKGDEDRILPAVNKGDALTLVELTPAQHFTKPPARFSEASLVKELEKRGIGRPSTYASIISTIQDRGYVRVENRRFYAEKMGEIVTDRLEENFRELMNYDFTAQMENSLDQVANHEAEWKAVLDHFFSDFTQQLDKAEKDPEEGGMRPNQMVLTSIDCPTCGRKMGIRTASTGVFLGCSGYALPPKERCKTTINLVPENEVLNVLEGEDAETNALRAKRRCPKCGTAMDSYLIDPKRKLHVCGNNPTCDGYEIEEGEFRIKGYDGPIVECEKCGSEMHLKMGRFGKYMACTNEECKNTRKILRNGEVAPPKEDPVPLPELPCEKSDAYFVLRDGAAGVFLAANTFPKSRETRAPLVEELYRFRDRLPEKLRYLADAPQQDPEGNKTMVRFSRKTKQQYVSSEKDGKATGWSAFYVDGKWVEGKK
Experimental: E. coli Topoisomerase IA (EcTopoIA) purified protein was diluted in buffer (10 mM Tris-HCl pH 8.0, 50 mM NaCl, 0.1 mg/mL gelatin, 0.5 mM MgCl2). Compounds were added in concentrations 1, 5, 10, 25 and 50 μM to 10 ng of the diluted enzyme present in 20 μL reaction volume. 500 ng of supercoiled pHOT plasmid DNA purified by Qiagen Maxiprep Kit was added. The mixture was incubated at 37° C. for 30 min before termination of the reaction and analysed by agarose gel electrophoresis without Ethidium bromide. The gels were then stained with ethidium bromide which was further photographed over UV transilluminator and analysed by performing densitometry.
Mechanism of inhibition was determined by performing relaxation assay in three different conditions. First, relaxation assay was done with increasing concentrations of Mg^2+ from 0 to 50 mM to find out optimum concentration of Mg^2+ required by EcTopo 1A. Second, relaxation assay was performed with increasing concentration of Mg^2+ in the presence of 5 μM compound and third, reaction we have increased the concentration of compound from 5 to 100 μM in a buffer with 25 mM of MgCl2.

E. coli K12 mutant ΔompF = test: Susceptibility of E. coli K12 and mutants (MIC90); conditions: Escherichia coli
Experimental: as §1

E. coli 72^R = test: Susceptibility (MIC, PAE, MBC), broth microdilution; conditions: Escherichia coli
Experimental: as §1

E. coli 401^R = test: as above; conditions: Escherichia coli
Experimental: as §1

E. coli DH5α = test: as above; conditions: Escherichia coli
Experimental: as §1

[5] = test system: isogenic efflux deleted strains; test: Susceptibility of isogenic efflux deleted strains versus wild type; assay type: cell-based, Escherichia coli; conditions: in comparison to wild type strains
[6] = test system: Klebsiella planticola (K235); test: Susceptibility (MIC50/MIC90), broth microdilution
Experimental: as §1

[7] = Enterococcus sp. (2105), HN12b + CCCP
[8] = A. baumannii (MTCC1920), HN12b + CCCP

Q: Which MIC90 [1] does the source give for `CCCN1CCN(c2nc3ccc(-c4nc5ccccc5[nH]4)cc3[nH]2)CC1` [HN12b, 2′-(4-propylpiperazine-1-yl)-1H, 3′H-2,5′-bibenzimidazole] here?
A: 3.8 µg/mL (≈ 10.5 µM)

Q: And the MIC90 (Enterococcus sp. (2105); Enterococcus)?
A: 128 µg/mL

Q: What about the FICI (Enterococcus sp. (2105); [7]) of the same molecule?
A: 0.5

Q: What about the Interpretation (Enterococcus sp. (2105); [7]) of the same molecule?
A: Synergy (FICI of ≤0.5 will correspond to synergy)

Q: And the FICI (Enterococcus sp. (2105); Enterococcus sp. (2105), HN12b + PAβN)?
A: 1

Q: And the MBC (E. coli 81^R)?
A: 2 µg/mL (≈ 5.55 µM)

Q: What about the MIC50 (E. coli 81^R) of the same molecule?
A: 1 µg/mL (≈ 2.77 µM)

Q: What about the MIC90 (E. coli 81^R) of the same molecule?
A: 1.6 µg/mL (≈ 4.44 µM)

Q: And the FICI ([2]; HN12b + CCCP)?
A: 0.6

Q: What about the FICI ([2]; HN12b + PAβN) of the same molecule?
A: 1

Q: And the MIC90 ([2]; Providencia, MTCC2102)?
A: > 128 µg/mL

Q: And the MBC (E. coli 85^R)?
A: 2 µg/mL (≈ 5.55 µM)

Q: What about the MIC50 (E. coli 85^R) of the same molecule?
A: 1 µg/mL (≈ 2.77 µM)

Q: And the MIC90 (E. coli 85^R)?
A: 1.7 µg/mL (≈ 4.72 µM)

Q: What about the MIC50 [3] of the same molecule?
A: 3.8 µg/mL (≈ 10.5 µM)

Q: And the MIC90 [3]?
A: 3.8 µg/mL (≈ 10.5 µM)

Q: And the FICI (A. baumannii (MTCC1920); [8])?
A: 0.5

Q: What about the Interpretation (A. baumannii (MTCC1920); [8]) of the same molecule?
A: Synergy (FICI of ≤0.5 will correspond to synergy)

Q: And the FICI (A. baumannii (MTCC1920); A. baumannii (MTCC1920), HN12b + PAβN)?
A: 0.9

Q: And the MIC90 (A. baumannii (MTCC1920); Acinetobacter baumannii, MTCC1920)?
A: > 128 µg/mL

Q: And the “Topoisomerase Inhibition activity” value [4]?
A: improved Topoisomerase Inhibition activity as compared to DMA

Q: And the MIC90 (E. coli K12 mutant ΔompF)?
A: 5.4 µg/mL (≈ 15 µM)

Q: What about the MIC90 (E. coli 72^R) of the same molecule?
A: 3.1 µg/mL (≈ 8.6 µM)

Q: What about the MBC (E. coli 401^R) of the same molecule?
A: 2 µg/mL (≈ 5.55 µM)

Q: And the MIC50 (E. coli 401^R)?
A: 1 µg/mL (≈ 2.77 µM)

Q: What about the MIC90 (E. coli 401^R) of the same molecule?
A: 1.7 µg/mL (≈ 4.72 µM)

Q: What about the MBC (E. coli DH5α) of the same molecule?
A: 0.8 µg/mL (≈ 2.22 µM)

Q: And the MIC50 (E. coli DH5α)?
A: 0.2 µg/mL (≈ 0.555 µM)

Q: What about the MIC90 (E. coli DH5α) of the same molecule?
A: 0.2 µg/mL (≈ 0.555 µM)

Q: And the “sensitisation of efflux deleted strains” value [5]?
A: more sensitised

Q: What about the MIC50 [6] of the same molecule?
A: 4.52 µg/mL (≈ 12.5 µM)

Q: What about the MIC90 [6] of the same molecule?
A: 84.5 µg/mL (≈ 234 µM)
